Each structure is given as a SMILES string.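 1) Cells in 96-well plates. 2) Compound, 48 h, 5 concentrations. 3) Linear interpolation between surrounding doses. 4) Unreached endpoint = highest concentration. GI50 marks 50% less growth.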 The source made the active and inactive calls. Rule as the data show it: active = GI50 up to about 1.1 µM and inactive = higher. Bounds are passed on as bounds.

Among the test systems are ACHN; HCC 2998; HL-60; HOP-92; HT-29; IGROV-1; K562; KM-20L2; MDA-MB-435; OVCAR-4; PC-3; RXF 393; SF-295; SF-539; SK-MEL-28; SK-OV-3; SN12C; T47D; UACC-257; UACC-62.
Common to all, as to assay: NCI-60 cell line screen, 48 h

For `Cc1c(N)nc(C2CC(=O)N2CC(N)C(N)=O)nc1C(=O)NC(C(=O)NC(C)C(O)C(C)C(=O)NC(C(=O)NCCc1nc(-c2nc(C(=O)NCCNCC(C)O)cs2)cs1)C(C)O)C(OC1OC(CO)C(O)C(O)C1OC1OC(CO)C(O)C(OC(N)=O)C1O)c1c[nH]cn1` (centres undefined), the GI50 in the experiment on ACHN is < 0.0249 µM (active); with HCC 2998 it was 21.9 µM (inactive); with HL-60 it was 5.75 µM (inactive); in the experiment on HOP-92, 0.295 µM (active); with HT-29, 21.3 µM (inactive); with IGROV-1 it was 37.2 µM (inactive). In addition, the GI50 in the experiment with K562 is 20.1 µM (inactive); in the experiment with KM-20L2, 58.6 µM (inactive); with MDA-MB-435 it was 3.1 µM (inactive); in the experiment on OVCAR-4, 7.57 µM (inactive); in the experiment on PC-3, > 50 µM (inactive); in the experiment with RXF 393 it was 0.0344 µM (active). Moreover, the GI50 with SF-295 is 0.167 µM (active); in the experiment on SF-539, < 0.0295 µM (active); with SK-MEL-28 it was 43.2 µM (inactive); in the experiment on SK-OV-3, 8.41 µM (inactive); in the experiment on SN12C, 1.45 µM (inactive); in the experiment on T47D it was > 5 µM (inactive). Besides, the GI50 in the experiment with UACC-257 was 0.528 µM (active); in the experiment on UACC-62, 0.441 µM (active).
Consider `CC(C)=CC1CC(=[N+]=[N-])C(=O)C1(C)C` (centres undefined), for which the GI50 in the experiment with ACHN was > 100 µM (inactive); with HCC 2998, > 100 µM (inactive); in the experiment with HL-60, > 100 µM (inactive); with HOP-92 it was > 80.7 µM (inactive); in the experiment on HT-29, > 31.6 µM (inactive); in the experiment on IGROV-1, > 100 µM (inactive). For the same molecule, the GI50 in the experiment on K562 is > 71.1 µM (inactive); in the experiment on KM-20L2 it was > 100 µM (inactive); in the experiment on OVCAR-4, > 100 µM (inactive); with RXF 393, > 31.6 µM (inactive); in the experiment on SF-295, > 100 µM (inactive); in the experiment on SF-539, > 100 µM (inactive). For the same molecule, the GI50 with SK-MEL-28, with SK-OV-3, in the experiment on SN12C, in the experiment with UACC-257 and in the experiment with UACC-62 was > 100 µM (inactive) each time.
For `CCSC(=O)N1c2ccc(OC)cc2C=CC1C#N` (centres undefined), the GI50 was 0.0041 µM (active) with ACHN; 0.00895 µM (active) in the experiment on HCC 2998; 0.00347 µM (active) in the experiment on HL-60; 0.1 µM (active) in the experiment on HOP-92; 0.00139 µM (active) in the experiment with HT-29; 0.00373 µM (active) with IGROV-1. Further, the GI50 in the experiment on K562 was 0.00632 µM (active); in the experiment on KM-20L2, < 0.01 µM (active); in the experiment with MDA-MB-435, 0.00292 µM (active); in the experiment on OVCAR-4, 0.308 µM (active); with PC-3, 0.00364 µM (active); in the experiment with RXF 393, 0.1 µM (active). The GI50 in the experiment with SF-295 was 0.00405 µM (active); in the experiment on SF-539, 0.00177 µM (active); with SK-MEL-28, 0.308 µM (active); in the experiment with SK-OV-3, 0.00425 µM (active); in the experiment on SN12C, 0.00782 µM (active); in the experiment on T47D, 228 µM (inactive). The GI50 was < 0.01 µM (active) in the experiment on UACC-257 and 0.00877 µM (active) in the experiment on UACC-62.
For the molecule `CN1CCOC(c2ccccc2)O1` (centres undefined), the GI50 in the experiment with ACHN, with HCC 2998, in the experiment with HL-60, with HOP-92, with HT-29 and with IGROV-1 was > 100 µM (inactive) throughout. In addition, the GI50 with K562, with KM-20L2, in the experiment on OVCAR-4, in the experiment with RXF 393, in the experiment with SF-295 and with SF-539 was > 100 µM (inactive) in each case. Moreover, the GI50 in the experiment with SK-MEL-28, in the experiment with SK-OV-3, in the experiment on SN12C, in the experiment on UACC-257 and with UACC-62 was > 100 µM (inactive) in each case.

Source of the values: ChEMBL document CHEMBL1201862, “PubChem BioAssay data set” (2004).
